Assays:
[1] = system: tail nerve of streptozotocin diabetic Sprague-Dawley rats; assay: Tail nerve conduction velocity in rats, administration from 16 weeks after onset of streptozotocin diabetes (Experimental Example 3); type: in vivo, rat; details: for tail nerve conduction velocity 5 wks after administration: started 16 weeks after onset of STZ diabetes; for tail nerve conduction velocity 5 wks after administration / tail nerve conduction velocity Before administration: mean ± standard error; for tail nerve conduction velocity Before administration: 16 weeks after onset of STZ diabetes
Experimental: Diabetes was induced by intravenous administration of streptozotocin (65 mg/kg) to 6-week-old male Sprague-Dawley rats. Starting from 16 weeks after the onset of diabetes, a 0.5% hydroxypropylmethylcellulose suspension containing compound A-1 was orally administered once a day. At 5 weeks from the administration, tail nerve conduction velocity was measured with arm induction potential test device (Neuropack 2, manufactured by Nihon Kohden) according to a modification of the method of Miyoshi (Fukuoka Medical Journal, vol. 62, pp. 588-603 (1971)). To be specific, subcutaneous temperature at the tail was maintained at 37° C. and the tail nerve was percutaneously stimulated electrically at 2 stimulation points (interval 6 cm). The distance between the stimulation points was divided by the difference between latencies in induced electromyogram to give nerve conduction velocity.

[2] = Blood glucose in streptozotocin-induced diabetic rats (Experimental Example 1); type: in vivo, rat; details: STZ diabetic rats; for blood glucose: 6 weeks after administration, mean ± standard error
Experimental: (§1) Diabetes was induced by intravenous administration of streptozotocin (65 mg/kg) to 6-week-old male Sprague-Dawley rats. Starting from 2-4 weeks after the onset of diabetes, a 0.5% hydroxypropylmethylcellulose suspension containing the compound of the present invention was orally administered once a day. At 4-7 weeks from the administration, tail nerve conduction velocity was measured with an induction potential test device (Neuropack 2, manufactured by Nihon Kohden) according to a modification of the method of Miyoshi (Fukuoka Medical Journal, vol. 62, pp. 588-603 (1971)). To be specific, subcutaneous temperature at the tail was maintained at 37° C. and the tail nerve was percutaneously stimulated electrically at 2 stimulation points (interval 6 cm). The distance between stimulation points was divided by the difference between latencies in electromyogram induced to give nerve conduction velocity. As to the test group in Table 1, blood glucose was measured at 6 weeks after administration. At 7 weeks after administration, urinary excretion of TXB2, which is a stable metabolite of TXA2, was measured.

[3] = system: tail nerve of streptozotocin diabetic Sprague-Dawley rats; assay: Tail nerve conduction velocity in streptozotocin-induced diabetic rats (Experimental Example 1); type: in vivo, rat; details: STZ diabetic rats; for tail nerve conduction velocity 7 wks after administration / tail nerve conduction velocity 5 wks after administration / tail nerve conduction velocity 4 wks after administration: mean ± standard error; for effect on tail nerve conduction velocity decreased by diabetes (in words): dose-dependent, oral once a day
Experimental: as §1

[4] = system: TXA2 biosynthesis (urinary TXB2); assay: Urinary excretion of TXB2, stable metabolite of TXA2, in streptozotocin-induced diabetic rats (Experimental Example 1); type: in vivo, rat; details: STZ diabetic rats; for urinary TXB2 excretion: 7 weeks after administration, mean ± standard error
Experimental: as §1

[5] = system: kidney glomerulus of streptozotocin diabetic Sprague-Dawley rats; assay: Degree of glomerular disorder in streptozotocin-induced diabetic rats (Experimental Example 4); type: in vivo, rat; details: STZ diabetic rats; for glomerular disorder score: total score of 50 glomeruli (0-4 each), mean ± standard error
Experimental: Diabetes was induced by intravenous administration of streptozotocin (65 mg/kg) to 5-week-old male Sprague-Dawley rats. Starting from 9 weeks after the onset of diabetes, a 0.5% hydroxypropylmethylcellulose suspension containing compound A-1 was orally administered once a day. At 9 weeks from the administration, kidney was removed to determine the degree of glomerular disorder and fixed in a 10% neutral-buffered formalin solution. Tissue sections were stained with hematoxylin/eosin. Glomerulus was evaluated according to the degree of obstruction in 5 stages (0: no obstruction, 1: up to 25% obstruction, 2: up to 50% obstruction, 3: up to 75% obstruction, 4: up to 100% obstruction). Fifty glomeruli were evaluated per sample and the total score was used as an index of the degree of glomerular disorder. This operation was done under a single blind condition.

[6] = system: sciatic nerve of spontaneously diabetic mice (db/db); assay: Sciatic nerve conduction velocity in spontaneously diabetic mice (db/db) (Experimental Example 2); type: in vivo, mouse; details: for sciatic nerve conduction velocity 4 wks after administration / sciatic nerve conduction velocity 5 wks after administration: db/db mice, mean ± standard error; for effect on sciatic nerve conduction velocity (in words): spontaneous diabetic mice, oral once a day
Experimental: A 0.5% hydroxypropylmethylcellulose suspension containing the compound of the present invention was orally administered to 9-week-old male spontaneously diabetic mice (db/db) once a day. At 4-5 weeks from the administration, sciatic nerve conduction velocity was measured with an induction potential test device (Neuropack 2, manufactured by Nihon Kohden) according to a modification of the method of Yasuda (Diabetes, 38, p. 832-838 (1989)). To be specific, rectal temperature was maintained at 37° C. and two points of sciatic notch and ankle were percutaneously stimulated electrically. The distance between the stimulation points was divided by the difference between latencies in induced electromyogram to give nerve conduction velocity.

[7] = system: tail nerve of rats with diabetes; assay: Tail nerve conduction velocity in rats with diabetes (sodium ozagrel); type: in vivo, rat
biosynthesis of TXA2 = assay: Biosynthesis of TXA2 in rats with diabetes (sodium ozagrel); type: in vivo, rat

In the case of Cc1ccc(-n2ccnc2)cc1C(O)c1c(C)cc(C(=O)[O-])cc1C.O.O.[Na+] (stereo not drawn) [Compound A-1, sodium 4-[α-hydroxy-2-methyl-5-(1-imidazolyl)benzyl]-3,5-dimethylbenzoate dihydrate], the “tail nerve conduction velocity 5 wks after administration” value (“tail nerve conduction velocity 5 wks” below) ([1]; 0.3 mg/kg/day oral once a day) was 48.3 ± 0.6 m/sec, the “tail nerve conduction velocity 5 wks” value ([1]; 1 mg/kg/day oral once a day) was 49.4 ± 0.4 m/sec and the “tail nerve conduction velocity 5 wks” value ([1]; 3 mg/kg/day oral once a day) was 50.2 ± 0.5 m/sec. For the same compound, the “effect on tail nerve conduction velocity lowered by the progression of diabetes (in words)” value ([1]; administration from 16 weeks after onset of diabetes, dose-dependent) was “increased tail nerve conduction velocity”, the “tail nerve conduction velocity Before administration” value ([1]; baseline of the 0.3 mg/kg/day group) was 46.2 ± 0.5 m/sec and the “tail nerve conduction velocity Before administration” value ([1]; baseline of the 1 mg/kg/day group) was 46.1 ± 0.4 m/sec. The “tail nerve conduction velocity Before administration” value ([1]; baseline of the 3 mg/kg/day group) was 46.0 ± 0.3 m/sec, the blood glucose ([2]; 0.03 mg/kg/day oral once a day) was 718.3 ± 50.7 mg/dL and the blood glucose ([2]; 0.1 mg/kg/day oral once a day) was 772.1 ± 32.4 mg/dL. For the same compound, the blood glucose ([2]; 0.3 mg/kg/day oral once a day) was 791.9 ± 65.5 mg/dL, the blood glucose ([2]; 1.0 mg/kg/day oral once a day) was 718.4 ± 64.1 mg/dL and the “effect on blood glucose (in words)” value ([2]; 0.03-1.0 mg/kg/day) was “without affecting the blood glucose”. The “tail nerve conduction velocity 7 wks after administration” value (from here on “tail nerve conduction velocity 7 wks”) ([3]; 0.03 mg/kg/day oral once a day) was 42.0 ± 0.5 m/sec, the “tail nerve conduction velocity 7 wks” value ([3]; 0.1 mg/kg/day oral once a day) was 43.4 ± 0.4 m/sec and the “tail nerve conduction velocity 7 wks” value ([3]; 0.3 mg/kg/day oral once a day) was 43.7 ± 0.3 m/sec. The “tail nerve conduction velocity 7 wks” value ([3]; 1.0 mg/kg/day oral once a day) was 44.8 ± 0.4 m/sec, the “effect on tail nerve conduction velocity decreased by diabetes (in words)” value [3] was “increased tail nerve conduction velocity” and the “urinary TXB2 excretion” value ([4]; 0.03 mg/kg/day oral once a day) was 10.6 ± 1.4 ng/day/100 g body weight. For the same compound, the “urinary TXB2 excretion” value ([4]; 0.1 mg/kg/day oral once a day) was 6.9 ± 0.8 ng/day/100 g body weight, the “urinary TXB2 excretion” value ([4]; 0.3 mg/kg/day oral once a day) was 5.1 ± 0.5 ng/day/100 g body weight and the “urinary TXB2 excretion” value ([4]; 1.0 mg/kg/day oral once a day) was 3.4 ± 0.3 ng/day/100 g body weight. The “effect on urinary TXB2 excretion increased by diabetes (in words)” value ([4]; dose-dependent, 0.03-1.0 mg/kg/day) was “decreased urinary TXB2 excretion”, the glomerular disorder score ([5]; 0.3 mg/kg/day oral once a day for 9 weeks) was 90.8 ± 10.0 and the glomerular disorder score ([5]; 1 mg/kg/day oral once a day for 9 weeks) was 65.7 ± 12.0. For the same compound, the glomerular disorder score ([5]; 10 mg/kg/day oral once a day for 9 weeks) was 55.4 ± 9.2 and the “effect on glomerular disorder due to diabetes (in words)” value ([5]; dose-dependent) was “suppressed glomerular disorder”.
With Cc1ccc(-n2ccnc2)cc1[C@H](O)c1c(C)cc(C(=O)[O-])cc1C.O.[Na+] [Compound A-2, sodium (S)-(−)-4[α-hydroxy-2-methyl-5-(1-imidazolyl)benzyl]-3,5-dimethylbenzoate 2/3 hydrate] the “sciatic nerve conduction velocity 4 wks after administration” value (“sciatic nerve conduction velocity 4 wks” for short) ([6]; 0.05 mg/kg/day oral once a day) was 46.6 ± 1.5 m/sec, the “sciatic nerve conduction velocity 4 wks” value ([6]; 0.5 mg/kg/day oral once a day) was 51.9 ± 1.2 m/sec and the “sciatic nerve conduction velocity 4 wks” value ([6]; 5 mg/kg/day oral once a day) was 51.7 ± 1.4 m/sec. The “effect on sciatic nerve conduction velocity (in words)” value [6] was “increased sciatic nerve conduction velocity”, the “tail nerve conduction velocity 5 wks” value ([3]; 0.03 mg/kg/day oral once a day) was 40.7 ± 0.5 m/sec and the “tail nerve conduction velocity 5 wks” value ([3]; 0.1 mg/kg/day oral once a day) was 42.6 ± 0.4 m/sec. The “tail nerve conduction velocity 5 wks” value ([3]; 0.3 mg/kg/day oral once a day) was 43.0 ± 0.3 m/sec, the “tail nerve conduction velocity 5 wks” value ([3]; 1 mg/kg/day oral once a day) was 42.6 ± 0.5 m/sec and the “effect on tail nerve conduction velocity decreased by diabetes (in words)” value [3] was “suppressed decrease in tail nerve conduction velocity”.
With Cc1ccc(-n2ccnc2)cc1[C@H](O)c1c(C)cc(C(=O)O)cc1C [Compound A-4, (S)-(−)-4-[α-hydroxy-2-methyl-5-(1-imidazolyl)benzyl]-3,5-dimethylbenzoic acid] the “sciatic nerve conduction velocity 5 wks after administration” value (from here on “sciatic nerve conduction velocity 5 wks”) ([6]; 0.3 mg/kg/day oral once a day) was 45.2 ± 1.2 m/sec, the “sciatic nerve conduction velocity 5 wks” value ([6]; 1 mg/kg/day oral once a day) was 45.9 ± 0.7 m/sec and the “sciatic nerve conduction velocity 5 wks” value ([6]; 3 mg/kg/day oral once a day) was 45.3 ± 0.8 m/sec. The “effect on sciatic nerve conduction velocity (in words)” value [6] was “increased sciatic nerve conduction velocity”, the “tail nerve conduction velocity 4 wks after administration” value (from here on “tail nerve conduction velocity 4 wks”) ([3]; 0.3 mg/kg/day oral once a day) was 40.9 ± 0.5 m/sec and the “tail nerve conduction velocity 4 wks” value ([3]; 1 mg/kg/day oral once a day) was 41.3 ± 0.4 m/sec. For the same compound, the “tail nerve conduction velocity 4 wks” value ([3]; 3 mg/kg/day oral once a day) was 41.7 ± 0.5 m/sec and the “effect on tail nerve conduction velocity decreased by diabetes (in words)” value [3] was “suppressed decrease in tail nerve conduction velocity”.
For O=C([O-])/C=C/c1ccc(Cn2ccnc2)cc1.[Na+] [sodium ozagrel, sodium (E)-p-(imidazol-1-ylmethyl)cinnamate], the “effect on decreased tail nerve conduction velocity (in words)” value [7] was “does not improve decreased tail nerve conduction velocity” and the “effect on promotion of biosynthesis of TXA2 (in words)” value (biosynthesis of TXA2) was “suppresses promotion of biosynthesis of TXA2”.

From patent US20050239856A1, “Method for prophylaxis and treatment of diabetic complications with 4{alpha-hydroxy-2-methyl-5-(1-imidazolyl)benzyl}-3,5-dimethylbenzoic acid and derivatives” (priority 1995, published 2005)
